Structure (SMILES)	melting point [°C]
O=C1NCC(=O)N2[C@@H](c3ccc4c(c3)OCO4)c3[nH]c4ccccc4c3C[C@H]12 (relative stereo) [Example 4, Cis-2,3,6,7,12,12a-Hexahydro-6-(3,4-methylenedioxyphenyl)-pyrazino[2′,1′:6,1]pyrido[3,4-b]indole-1,4-dione]	283 to 285
O=C1[C@H]2Cc3c([nH]c4ccccc34)[C@H](c3ccc4c(c3)OCO4)N2C(=O)CN1Cc1ccccn1 (relative stereo) [Example 10, Cis-2,3,6,7,12,12a-Hexahydro-2-(2-pyridylmethyl)-6-(3,4-methylenedioxyphenyl)-pyrazino[2′,1′:6,1]pyrido[3,4-b]indole-1,4-dione]	285 to 286
CCCN1CC(=O)N2[C@@H](c3ccc4c(c3)OCO4)c3[nH]c4ccccc4c3C[C@@H]2C1=O (relative stereo) [Example 15, Cis-2,3,6,7,12,12a-Hexahydro-6-(3,4-methylenedioxyphenyl)-2-propyl-pyrazino[2′,1′:6,1]pyrido[3,4-b]indole-1,4-dione]	270 to 271
O=C1[C@H]2Cc3c([nH]c4ccccc34)[C@H](c3ccc4c(c3)OCO4)N2C(=O)CN1C1CC1 (relative stereo) [Example 17, Cis-2,3,6,7,12,12a-Hexahydro-2cyclopropyl-6-(3,4-methylenedioxyphenyl)-pyrazino[2′,1′:6,1]pyrido[3,4-b]indole-1,4-dione]	290 to 292
O=C1[C@H]2Cc3c([nH]c4ccccc34)[C@H](c3ccc4c(c3)OCO4)N2C(=O)CN1CC1CC1 (relative stereo) [Example 20, Cis-2,3,6,7,12,12a-Hexahydro-2-cyclopropylmethyl-6-(3,4-methylenedioxyphenyl)-pyrazino[2′,1′:6,1]pyrido[3,4-b]indole-1,4-dione]	217 to 218
O=C1[C@H]2Cc3c([nH]c4ccccc34)[C@H](c3ccc4c(c3)OCO4)N2C(=O)CN1C1CCCC1 (relative stereo) [Example 21, Cis-2,3,6,7,12,12a-Hexahydro-2-cyclopentyl-6-(3,4-methylenedioxyphenyl)-pyrazino[2′,1′:6,1]pyrido[3,4-b]indole-1,4-dione]	270
O=C1[C@H]2Cc3c([nH]c4ccccc34)[C@H](c3ccc4c(c3)OCO4)N2C(=O)CN1Cc1ccc(F)cc1 (relative stereo) [Example 24, Cis-2,3,6,7,12,12a-Hexahydro-2-(4-fluorobenzyl)6-(3,4-methylenedioxyphenyl)-pyrazino[2′,1′:6,1]pyrido[3,4-b]indole-1,4-dione]	281 to 283
CN1CC(=O)N2[C@@H](c3ccc4c(c3)OCCO4)c3[nH]c4ccccc4c3C[C@@H]2C1=O (relative stereo) [Example 38, Cis-2,3,6,7,12,12a-Hexahydro-6-(3,4-ethylenedioxyphenyl)-2-methyl-pyrazino[2′,1′:6,1]pyrido[3,4-b]indole-1,4-dione]	303 to 305
CN1CC(=O)N2[C@@H](c3ccc(Cl)c(Cl)c3)c3[nH]c4ccccc4c3C[C@@H]2C1=O (relative stereo) [Example 43, Cis-2,3,6,7,12,12a-Hexahydro-6-(3,4-dichlorophenyl)-2-methyl-pyrazino[2′,1′:6,1]pyrido[3,4-b]indole-1,4-dione]	> 260
O=C1[C@@H]2Cc3c([nH]c4ccccc34)[C@H](c3ccccc3)N2C(=O)CN1Cc1ccccc1 (relative stereo) [Example 46, Trans-2,3,6,7,12,12a-Hexahydro-2-benzyl-6-phenyl-pyrazino[2′,1′:6,1]pyrido[3,4-b]indole-1,4-dione]	284
CN1CC(=O)N2[C@@H](c3ccc4ccccc4c3)c3[nH]c4ccccc4c3C[C@@H]2C1=O (relative stereo) [Example 50, Cis-2,3,6,7,12,12a-Hexahydro-2-methyl-6-(2-naphthyl)-pyrazino[2′,1′:6,1]pyrido[3,4-b]indole-1,4-dione]	> 260
O=C1[C@H]2Cc3c([nH]c4ccccc34)[C@H](c3ccc(Br)s3)N2C(=O)CN1CC1CC1 (relative stereo) [Example 54, Cis-2,3,6,7,12,12a-Hexahydro-6-(5-bromo-2-thienyl)-2-cyclopropylmethyl-pyrazino[2′,1′:6,1]pyrido[3,4-b]indole-1,4-dione]	190
O=C1[C@H]2Cc3c([nH]c4ccccc34)[C@H](c3ccc(Br)s3)N2C(=O)CN1C1CCCC1 (relative stereo) [Example 55, Cis-2,3,6,7,12,12a-Hexahydro-6-(5-bromo-2-thienyl)-2-cyclopentyl-pyrazino[2′,1′:6,1]pyrido[3,4-b]indole-1,4-dione]	252
CN1CC(=O)N2[C@@H](c3ccsc3)c3[nH]c4ccccc4c3C[C@@H]2C1=O (relative stereo) [Example 57, Cis-2,3,6,7,12,12a-Hexahydro-2-methyl-6-(3-thienyl)-pyrazino[2′,1′:6,1]pyrido[3,4-b]indole-1,4-dione]	290 to 295
Cc1cccc([C@H]2c3[nH]c4ccccc4c3C[C@@H]3C(=O)N(C)CC(=O)N23)c1 (relative stereo) [Example 65, Cis-2,3,6,7,12,12a-Hexahydro-2-methyl-6-(3-methylphenyl)-pyrazino[2′,1′:6,1]pyrido[3,4-b]indole-1,4-dione]	> 260

More lines, now with the values ahead:

melting point [°C]	Structure (SMILES)
241 to 243	CCCCN1CC(=O)N2[C@@H](c3ccc4c(c3)OCO4)c3[nH]c4ccccc4c3C[C@@H]2C1=O (relative stereo) [Example 18, Cis-2,3,6,7,12,12a-Hexahydro-2-butyl-6-(3,4-methylenedioxyphenyl)-pyrazino[2′,1′:6,1]pyrido[3,4-b]indole-1,4-dione]
225 to 228	COc1ccc([C@H]2c3[nH]c4ccccc4c3C[C@H]3C(=O)N(C)CC(=O)N23)cc1 (relative stereo) [Example 26, Trans-2,3,6,7,12,12a-Hexahydro-6-(4-methoxyphenyl)-2-methyl-pyrazino[2′,1′:6,1]pyrido[3,4-b]indole-1,4-dione]
245 to 255	CCN1CC(=O)N2[C@@H](c3ccc(OC)cc3)c3[nH]c4ccccc4c3C[C@@H]2C1=O (relative stereo) [Example 27, Cis-2,3,6,7,12,12a-Hexahydro-2-ethyl-6(4-methoxyphenyl)-pyrazino[2′,1′:6,1]pyrido[3,4-b]indole-1,4-dione]
157	CCCCN1CC(=O)N2[C@@H](c3ccc(OC)cc3)c3[nH]c4ccccc4c3C[C@@H]2C1=O (relative stereo) [Example 29, Cis-2,3,6,7,12,12a-Hexahydro-2-butyl-6-(4-methoxyphenyl)-pyrazino[2′,1′:6,1]pyrido[3,4-b]indole-1,4-dione]
212 to 214	CCCCN1CC(=O)N2[C@@H](c3ccc(OC)cc3)c3[nH]c4ccccc4c3C[C@H]2C1=O (relative stereo) [Example 30, Trans-2,3,6,7,12,12a-Hexahydro-2-butyl-6-(4-methoxyphenyl)-pyrazino[2′,1′:6,1]pyrido[3,4-b]indole-1,4-dione]
267 to 269	COc1cccc([C@H]2c3[nH]c4ccccc4c3C[C@@H]3C(=O)N(C)CC(=O)N23)c1 (relative stereo) [Example 33, Cis-2,3,6,7,12,12a-Hexahydro-6-(3-methoxyphenyl)-2-methyl-pyrazino[2′,1′:6,1]pyrido[3,4-b]indole-1,4-dione]
247 to 248	CCOc1ccc([C@H]2c3[nH]c4ccccc4c3C[C@@H]3C(=O)N(C)CC(=O)N23)cc1 (relative stereo) [Example 34, Cis-2,3,6,7,12,12a-Hexahydro-6-(4-ethoxyphenyl)-2methyl-pyrazino[2′,1′:6,1]pyrido[3,4-b]indole-1,4-dione]
164 to 166	CCCCN1CC(=O)N2[C@@H](c3ccc(Cl)cc3)c3[nH]c4ccccc4c3C[C@@H]2C1=O (relative stereo) [Example 42, Cis-2,3,6,7,12,12a-Hexahydro-2-butyl-6-(4-chlorophenyl)-pyrazino[2′,1′:6,1]pyrido[3,4-b]indole-1,4-dione]
243 to 245	CCCCN1CC(=O)N2[C@@H](c3ccccc3)c3[nH]c4ccccc4c3C[C@@H]2C1=O (relative stereo) [Example 44, Cis-2,3,6,7,12,12a-Hexahydro-2-butyl-6-phenyl-pyrazino[2′,1′:6,1]pyrido[3,4-b]indole-1,4-dione]
226	CCCCN1CC(=O)N2[C@@H](c3cccs3)c3[nH]c4ccccc4c3C[C@@H]2C1=O (relative stereo) [Example 51, Cis-2,3,6,7,12,12a-Hexahydro-2-butyl-6-(2-thienyl)-pyrazino[2′,1′:6,1]pyrido[3,4-b]indole-1,4-dione]
> 260	Cc1ccc([C@H]2c3[nH]c4ccccc4c3C[C@@H]3C(=O)N(C)CC(=O)N23)cc1 (relative stereo) [Example 61, Cis-2,3,6,7,12,12a-Hexahydro-2-methyl-6-(4-methylphenyl)-pyrazino[2′,1′:6,1]pyrido[3,4-b]indole-1,4-dione]
170	Cc1ccc([C@H]2c3[nH]c4ccccc4c3C[C@@H]3C(=O)N(C(C)C)CC(=O)N23)cc1 (relative stereo) [Example 62, Cis-2,3,6,7,12,12a-Hexahydro-2-isopropyl-6-(4-methylphenyl)-pyrazino[2′,1′:6,1]pyrido[3,4-b]indole-1,4-dione]
194	Cc1ccc([C@H]2c3[nH]c4ccccc4c3C[C@@H]3C(=O)N(CC4CC4)CC(=O)N23)cc1 (relative stereo) [Example 64, Cis-2,3,6,7,12,12a-Hexahydro-2-cyclopropylmethyl-6-(4-methylphenyl)-pyrazino[2′,1′:6,1]pyrido[3,4-b]indole-1,4-dione]
155	CCCCN1CC(=O)N2[C@@H](c3ccc(C(F)(F)F)cc3)c3[nH]c4ccccc4c3C[C@@H]2C1=O (relative stereo) [Example 66, Cis-2,3,6,7,12,12a-Hexahydro-2-butyl-6-(4-trifluoromethylphenyl)-pyrazino[2′,1′:6,1]pyrido[3,4-b]indole-1,4-dione]
